Reference: patent US20220315624A1, “THIOSTREPTON ANALOGS AND METHODS OF MAKING AND USING SAME” (YALE UNIVERSITY, priority 2019, published 2022)
Converted amounts (≈) assume the structure as drawn. Read-outs that look alike come from different tables or passages of the source.

Assays:
[1] = test system: S. aureus isolates; test: MIC broth microdilution, S. aureus isolates; type: cell-based; conditions: for MIC: Staphylococcus aureus, read-out: MIC values against S. aureus isolates
Description: (§1) Twenty-four test agents were shipped to Micromyx and stored at −20° C. until assayed. The compounds were dissolved in 100% DMSO at 6.46 mg/mL prior to testing. Comparator drugs were supplied by Micromyx and were handled as described below:
(§2) The test organisms for the assay were recent clinical isolates or reference strains acquired from the American Type Culture Collection (ATCC; Manassas, Va.). Upon receipt, the isolates were streaked onto Trypticase Soy Agar II+5% sheep blood (TSAB). Colonies were harvested from the plates and a cell suspension was prepared in Trypticase Soy Broth containing cryoprotectant. Aliquots were then frozen at −80° C. Prior to the assay, the frozen seeds of all bacterial isolates to be tested were thawed and streaked for isolation onto TSAB (BD/BBL, Sparks, Md.; Lot No. 9011894), and were incubated overnight at 35° C.
(§3) The test medium for all isolates was cation-adjusted Mueller Hinton broth (CAMHB; BD/BBL; Lot No. 8190586). CAMHB (Cation Adjusted Mueller Hinton Broth) was supplemented with 3% (v/v) lysed horse blood (LHB; Hemostat, Dixon, Calif.; Lot No. 474990) for the testing of streptococci.
(§4) MIC values were determined using a broth microdilution method as recommended by CLSI. Automated liquid handlers (Multidrop 384, Labsystems, Helsinki, Finland; Biomek 2000 and Biomek F/X, Beckman Coulter, Fullerton Calif.) were used to conduct serial dilutions and make liquid transfers.
(§5) The wells of standard 96-well microdilution plates (Costar 3795, Corning Inc., Corning, N.Y.) were filled with 150 μL of the appropriate diluent in columns 2-12 on the Multidrop 384 (DMSO for the thiostrepton analogs, deionized H2O for vancomycin and ceftazidime). These plates were used to prepare the drug “mother plate” which provided the serial drug dilutions for the replicate “daughter plates”. The compounds (300 μL) were dispensed at 101× the highest concentration to be tested into the appropriate row of the “mother plate”. The Biomek 2000 was used to transfer 150 μL of each stock solution from the wells in Column 1 of the mother plate to make ten subsequent 2-fold serial dilutions. The wells of Column 12 contained no drug and served as the organism growth control wells. The daughter plates were loaded with 190 μL of test medium using the Multidrop 384.
(§6) The daughter plates were prepared on the Biomek F/X instrument which transferred […] of drug solution from each well of the mother plate to each corresponding well of each daughter plate in a single step. The wells of the daughter plates ultimately contained 190 μL of media, 2 μL of drug solution, and 10 μL of inoculum prepared as described below. The final concentration of DMSO (if used as a solvent) in the test well was 1%.
(§7) A standardized inoculum of each organism was prepared per CLSI methods. A suspension of organisms from a fresh plate was prepared in CAMHB to equal the turbidity of a 0.5 McFarland standard. The suspensions were diluted 1:20 in CAMHB, or in the case of streptococci CAMHB with LHB. The inoculum for each organism was dispensed into sterile reservoirs divided by length (Beckman Coulter), and the Biomek 2000 was used to inoculate the plates. Daughter plates were placed on the Biomek 2000 work surface reversed so that inoculation took place from low to high drug concentration. The Biomek 2000 delivered 10 μL of standardized inoculum into each well. These dilutions yielded a final cell concentration in the daughter plates of approximately 5.0×10^5 CFU/mL.
(§8) Plates were stacked 3 high, covered with a lid on the top plate, placed in plastic bags, and incubated at 35° C. for 16-20 hr for all organisms except streptococci which were incubated for 20-24 hr. Following incubation, the microplates were removed from the incubator and viewed from the bottom using a plate viewer. The MIC was read and recorded as the lowest concentration of drug that inhibited visible growth of the organism. […]

[2] = test system: S. aureus MMX 8088 MRSA; test: MIC broth microdilution; type: cell-based; conditions: Staphylococcus aureus
Description: as §1, §2, §3, §4, §5, §6, §7, §8

[3] = test system: S. pneumoniae ATCC 49619 PISP; test: MIC broth microdilution; type: cell-based; conditions: Streptococcus pneumoniae, ATCC49619, 20 h
Description: as §1, §2, §3, §4, §5, §6, §7, §8

[4] = test system: S. pyogenes ATCC 19615; test: MIC broth microdilution; type: cell-based; conditions: Streptococcus pyogenes, ATCC19615, 20 h
Description: as §1, §2, §3, §4, §5, §6, §7, §8

[5] = test system: E. faecalis MMX 486 VRE; test: MIC broth microdilution; type: cell-based; conditions: Enterococcus faecalis
Description: as §1, §2, §3, §4, §5, §6, §7, §8

[6] = test system: E. coli ATCC 25922; test: MIC broth microdilution; type: cell-based
Description: as §1, §2, §3, §4, §5, §6, §7, §8

[7] = test system: E. faecium MMX 708 VSE; test: MIC broth microdilution; type: cell-based; conditions: Enterococcus faecium, MMX708VSE
Description: as §1, §2, §3, §4, §5, §6, §7, §8

[8] = test system: E. faecalis ATCC 29212 VSE; test: MIC broth microdilution; type: cell-based; conditions: Enterococcus faecalis, ATCC29212
Description: as §1, §2, §3, §4, §5, §6, §7, §8

[9] = test system: S. aureus ATCC 29213 MSSA; test: MIC broth microdilution; type: cell-based; conditions: Staphylococcus aureus
Description: as §1, §2, §3, §4, §5, §6, §7, §8

[10] = test system: E. faecium MMX 485 VRE; test: MIC broth microdilution; type: cell-based; conditions: Enterococcus faecium
Description: as §1, §2, §3, §4, §5, §6, §7, §8

[11] = test system: S. pneumoniae and S. pyogenes isolates; test: MIC broth microdilution, summary over streptococci; type: cell-based; conditions: read-out: MIC values against S. pneumoniae and S. pyogenes isolates
Description: as §1, §2
The test medium for all isolates was cation-adjusted Mueller Hinton broth (CAMHB; BD/BBL; Lot No. 8190586). […]
MIC values were determined using a broth microdilution method as recommended by CLSI. […]
as §8, with “Following incubation, the microplates were removed from the incubator and viewed from the bottom using a plate viewer.” left out

[12] = test system: Gram-positive cocci; test: MIC broth microdilution, overall summary; type: cell-based; conditions: summary of MIC testing
Description: as §1, §2, §3, §4, §5
The daughter plates were prepared on the Biomek F/X instrument which transferred […] of drug solution from each well of the mother plate to each corresponding well of each daughter plate in a single step. […]
as §8, with “Following incubation, the microplates were removed from the incubator and viewed from the bottom using a plate viewer.” left out

[13] = Un-inoculated solubility control plate (drug precipitation); type: physicochemical; conditions: for Precipitation in CAMHB in LHB: at 64 μg/mL in CAMHB in LHB
[14] = test system: E. faecalis and E. faecium; test: MIC broth microdilution, summary over enterococci; type: cell-based; conditions: for MIC: read-out: MIC values against E. faecalis and E. faecium
Description: as §1, §2, §3, §4, §5, §6, §7, §8

[15] = Aqueous solubility analysis in MOPS buffer; type: physicochemical; conditions: after 24 hours in 10 mM aqueous MOPS buffer
Description: A 2 dram vial was loaded with ˜0.5 mg of a thiostrepton derivative and suspended in ˜4 mL of aqueous 10 mM MOPS buffer (pKa 7.2). The suspension was stirred vigorously for 24 h to ensure equilibration, then filtered through a […] centrifuge filtration unit. A 3.0 mL aliquot was concentrated, and the dried residue was diluted with 0.30 mL of 1:1 1,4-dioxane/H2O (10× original concentration necessitated by detection limits). The total UV absorbance (200-300 nm) was measured in triplicate by UPLC runs with a photodiode array detector. A calibration curve for each compound was created using data points from 3 trials each of concentrations in 1:1 1,4-dioxane/H2O ranging from […]. These concentrations were plotted against their respective average absorbances. The experimental concentration of each compound was calculated by dividing the found μg/mL value by the residue concentration factor of 10 to yield the actual solubility value.

C=C(NC(=O)c1csc(C2=N[C@@H]3c4csc(n4)[C@H]4NC(=O)c5csc(n5)[C@H]([C@](C)(O)[C@@H](C)O)NC(=O)C5CSC(=N5)/C(=C/C)NC(=O)[C@H]([C@@H](C)O)NC(=O)c5csc(n5)[C@]3(CC2)NC(=O)[C@H](C)NC(=O)C(=C)NC(=O)[C@H](C)NC(=O)[C@H]([C@@H](C)CC)N[C@@H]2C=Cc3c([C@H](C)O)cc(nc3[C@H]2O)C(=O)O[C@@H]4C)n1)C(=O)NC(=CNC(=O)c1cccc(/C=N/OC2O[C@H](CO)[C@@H](O)[C@H](O)[C@H]2O)c1)C(N)=O (stereo partly shown) [RJS-16]
MIC ([1]; across MSSA and MRSA isolates): 16 µg/mL (≈ 8.04 µM) | MIC ([2]; S. aureus MMX 8088 MRSA, CAMHB, read-out: MIC): 16 µg/mL (≈ 8.04 µM) | MIC ([3]; S. pneumoniae ATCC 49619 PISP, CAMHB with 3% lysed horse blood, read-out: MIC): 0.25 µg/mL (≈ 0.126 µM) | MIC ([4]; S. pyogenes ATCC 19615, CAMHB with 3% lysed horse blood, read-out: MIC): 0.25 µg/mL (≈ 0.126 µM) | MIC ([5]; E. faecalis MMX 486 VRE, CAMHB, read-out: MIC): 16 µg/mL (≈ 8.04 µM) | MIC ([6]; Escherichia coli, ATCC25922, E. coli ATCC 25922, CAMHB, read-out: MIC): > 64 µg/mL | MIC ([7]; E. faecium MMX 708 VSE, CAMHB, read-out: MIC): 16 µg/mL (≈ 8.04 µM) | MIC ([8]; E. faecalis ATCC 29212 VSE, CAMHB, read-out: MIC): 16 µg/mL (≈ 8.04 µM) | MIC ([9]; S. aureus ATCC 29213 MSSA, CAMHB, read-out: MIC): 16 µg/mL (≈ 8.04 µM) | MIC ([10]; E. faecium MMX 485 VRE, CAMHB, read-out: MIC): 8 µg/mL (≈ 4.02 µM) | MIC ([11]; across evaluated streptococci): 0.25 µg/mL (≈ 0.126 µM) | Activity among the evaluated analogs / against evaluated Gram-positive cocci (summary in words) [12]: least activity | Precipitation in CAMHB in LHB [13]: distinct precipitation | MIC ([14]; across the evaluated enterococci, VSE and VRE): 8 to 16 µg/mL (≈ 4.02 to 8.04 µM) | solubility at 24 h ([15]; aqueous 10 mM MOPS buffer, thermodynamic from solid, pH 7.2): 11 µg/mL (≈ 5.53 µM)

C=C(NC(=O)C(=C)NC(=O)c1csc(C2=N[C@@H]3c4csc(n4)[C@H]4NC(=O)c5csc(n5)[C@H]([C@](C)(O)[C@@H](C)O)NC(=O)[C@H]5CSC(=N5)/C(=C/C)NC(=O)[C@H]([C@@H](C)O)NC(=O)c5csc(n5)[C@]3(CC2)NC(=O)[C@H](C)NC(=O)C(=C)NC(=O)[C@H](C)NC(=O)[C@H]([C@@H](C)CC)N[C@@H]2C=Cc3c([C@H](C)O)cc(nc3[C@H]2O)C(=O)O[C@@H]4C)n1)C(N)=O [Thiostrepton]
MIC [1]: 0.06 to 0.12 µg/mL (≈ 0.036 to 0.0721 µM) | MIC values against MRSA relative to MSSA ([1]; identical or within 2-fold, impact of methicillin resistance): ≤ 2 fold | MIC ([2]; MRSA): 0.12 µg/mL (≈ 0.0721 µM) | MIC [3]: < 0.001 µg/mL | MIC [4]: < 0.001 µg/mL | MIC ([5]; VRE): 0.12 µg/mL (≈ 0.0721 µM) | MIC ([6]; E. coli ATCC 25922, CAMHB): >64 µg/mL | MIC ([6]; Escherichia coli, ATCC25922): > 64 µg/mL | MIC [7]: 0.12 µg/mL (≈ 0.0721 µM) | MIC [8]: 0.12 µg/mL (≈ 0.0721 µM) | MIC [9]: 0.06 µg/mL (≈ 0.036 µM) | MIC ([10]; VRE): 0.06 µg/mL (≈ 0.036 µM) | MIC [11]: ≤ 0.001 µg/mL | Activity among the evaluated analogs / against evaluated Gram-positive cocci (summary in words) [12]: potent activity | Precipitation in CAMHB ([13]; at 64 μg/mL in CAMHB): distinct precipitation | Precipitation in CAMHB in LHB [13]: distinct precipitation | VRE MIC values relative to VSE MIC values ([14]; impact of vancomycin resistance among enterococci): comparable | MIC [14]: 0.06 to 0.12 µg/mL (≈ 0.036 to 0.0721 µM) | Solubility pH 7.2 [15]: 3.0 (±0.2) μg/mL
